{"source": "patent US11273152B2", "about": "“TRPV2 antagonists” (Instituto de Medicina Molecular João Lobo Antunes, priority 2017, dated 2022)", "key": {"TRPM8": {"molecular_target": "TRPM8 (Homo sapiens, UniProt Q7Z2W7)", "test": "Fluorescence cell-based assay, TRPM8", "conditions": "calcium 5 dye, duplicate", "method": "(§1) The assays were performed at SB Discovery (Glasgow, UK) on a fee-for-service basis. Human TRP cells were trypsinised, counted and seeded in black, clear-bottomed 96 well plates at a density of 50,000 cells per well in 100 μL volume and incubated overnight. Next day, the cells were loaded with calcium 5 dye or membrane potential dye. TRPV1-5, TRPA1, TRPM2, TRPM3, and TRPM8 were tested using the calcium 5 dye. TRPC1, TRPC3-7, and TRPM4-5 were tested using the membrane potential dye. Both dye solutions were made up in HEPES buffered Hank's balanced salt solution (HBSS). Dye solution (90 μL) was added to the wells and incubated at 37° C. for 1 hour. Test compounds and standard inhibitors (10 μL) were then added to the wells and incubated at room temperature for 10 minutes. The plates were then placed in the flexstation and fluorescence monitored every 1.52 seconds. After 20 seconds agonist was added and the fluorescence monitored for 2 minutes at 485 nm/525 nm and 530 nm/565 nm, Ex/Em, for the calcium 5 dye and the membrane potential dye respectively. Controls-TRPV1: capsazepine; TRPV2: tranilast; TRPV3: ruthenium red; TRPV4: ruthenium red; TRPV5: Gd^3+; TRPA1, ruthenium red; TRPC1: Gd^3+; TRPC3: Pyr3; TRPC4: ML 204; TRPC5: ML 204; TRPC6: ML 204; TRPC7: SKF 96365; TRPM2: 2-APB; TRPM3: Mef acid; TRPM4: clotrimazole; TRPM5: TPPO; TRPM8: 2-APB. […]"}, "HepG2 cells": {"test_system": "HepG2 cells", "test": "Wound-healing scratch assay, HepG2", "type": "cell-based", "conditions": "24-hour"}, "TRPA1": {"molecular_target": "TRPA1 (Homo sapiens, UniProt O75762)", "sequence (O75762 whole entry)": "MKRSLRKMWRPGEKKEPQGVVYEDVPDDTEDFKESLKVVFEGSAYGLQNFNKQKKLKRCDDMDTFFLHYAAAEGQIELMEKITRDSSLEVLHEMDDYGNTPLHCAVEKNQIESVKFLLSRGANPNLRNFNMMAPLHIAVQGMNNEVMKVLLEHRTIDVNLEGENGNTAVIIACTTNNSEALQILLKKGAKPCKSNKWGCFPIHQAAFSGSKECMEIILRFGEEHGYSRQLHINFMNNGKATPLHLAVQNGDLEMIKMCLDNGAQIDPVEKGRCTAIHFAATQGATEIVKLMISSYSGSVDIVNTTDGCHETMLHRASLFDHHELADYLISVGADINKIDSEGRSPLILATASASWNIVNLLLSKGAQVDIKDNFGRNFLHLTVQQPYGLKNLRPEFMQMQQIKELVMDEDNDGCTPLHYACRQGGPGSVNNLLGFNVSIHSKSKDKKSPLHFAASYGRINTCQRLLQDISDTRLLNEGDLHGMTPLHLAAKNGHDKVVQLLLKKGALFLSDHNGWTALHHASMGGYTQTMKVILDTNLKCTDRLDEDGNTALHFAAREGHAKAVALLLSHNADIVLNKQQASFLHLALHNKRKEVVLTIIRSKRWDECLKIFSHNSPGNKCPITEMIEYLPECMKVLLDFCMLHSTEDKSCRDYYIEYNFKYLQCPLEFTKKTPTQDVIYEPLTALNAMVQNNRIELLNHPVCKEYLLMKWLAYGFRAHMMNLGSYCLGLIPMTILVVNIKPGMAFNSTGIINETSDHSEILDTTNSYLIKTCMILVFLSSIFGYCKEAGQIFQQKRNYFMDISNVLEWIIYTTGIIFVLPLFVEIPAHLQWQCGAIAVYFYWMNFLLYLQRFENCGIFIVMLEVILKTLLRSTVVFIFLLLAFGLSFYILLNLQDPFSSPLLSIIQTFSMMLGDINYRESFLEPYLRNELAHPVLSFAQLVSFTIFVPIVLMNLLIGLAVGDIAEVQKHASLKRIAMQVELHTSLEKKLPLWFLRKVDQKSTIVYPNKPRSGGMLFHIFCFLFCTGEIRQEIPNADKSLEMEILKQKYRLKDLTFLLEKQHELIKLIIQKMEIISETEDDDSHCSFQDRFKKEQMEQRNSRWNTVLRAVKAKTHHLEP", "test": "Fluorescence cell-based assay, TRPA1", "conditions": "calcium 5 dye, spread in log units, duplicate", "method": "as §1"}, "TRPV3": {"molecular_target": "TRPV3 (Homo sapiens, UniProt Q8NET8)", "test": "Fluorescence cell-based assay, TRPV3", "conditions": "calcium 5 dye, duplicate", "method": "as §1"}, "TRPV4": {"molecular_target": "TRPV4 (Homo sapiens, UniProt Q9HBA0)", "test": "Fluorescence cell-based assay, TRPV4", "conditions": "calcium 5 dye, duplicate", "method": "as §1"}, "rabbit TRPV2 orthologue": {"test_system": "rabbit TRPV2 orthologue", "test": "Isothermal titration calorimetry, rabbit TRPV2", "type": "binding", "conditions": "rabbit TRPV2 constructs; 100 μM"}, "TRPV2 [1]": {"molecular_target": "T1, TRPV2 (Homo sapiens, UniProt Q9Y5S1)", "T1 sequence (Q9Y5S1 1-764)": "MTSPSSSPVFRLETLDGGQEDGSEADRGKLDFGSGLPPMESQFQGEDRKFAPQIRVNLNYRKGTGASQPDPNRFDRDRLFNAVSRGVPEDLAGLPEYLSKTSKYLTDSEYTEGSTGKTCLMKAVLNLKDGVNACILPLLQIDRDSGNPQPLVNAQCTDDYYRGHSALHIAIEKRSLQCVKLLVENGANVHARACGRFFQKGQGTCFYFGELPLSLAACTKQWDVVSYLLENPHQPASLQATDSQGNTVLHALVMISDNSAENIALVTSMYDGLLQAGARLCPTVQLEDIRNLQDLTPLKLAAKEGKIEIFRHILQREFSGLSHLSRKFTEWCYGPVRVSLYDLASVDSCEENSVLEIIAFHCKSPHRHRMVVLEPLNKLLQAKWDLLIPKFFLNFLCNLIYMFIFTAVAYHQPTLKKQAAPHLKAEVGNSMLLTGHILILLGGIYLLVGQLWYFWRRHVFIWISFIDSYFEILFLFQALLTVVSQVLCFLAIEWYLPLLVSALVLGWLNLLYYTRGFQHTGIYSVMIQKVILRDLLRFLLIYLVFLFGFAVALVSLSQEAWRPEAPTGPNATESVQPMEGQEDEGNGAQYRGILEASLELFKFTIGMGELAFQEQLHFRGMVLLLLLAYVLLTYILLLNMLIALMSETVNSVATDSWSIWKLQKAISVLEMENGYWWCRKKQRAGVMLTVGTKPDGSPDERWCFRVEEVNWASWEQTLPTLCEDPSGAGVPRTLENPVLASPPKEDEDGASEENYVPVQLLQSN", "test": "Co-incubation experiments with cannabidiol (mode of binding)", "type": "cell-based"}, "TRPC6": {"molecular_target": "TRPC6 (Homo sapiens, UniProt Q9Y210)", "sequence (Q9Y210 whole entry)": "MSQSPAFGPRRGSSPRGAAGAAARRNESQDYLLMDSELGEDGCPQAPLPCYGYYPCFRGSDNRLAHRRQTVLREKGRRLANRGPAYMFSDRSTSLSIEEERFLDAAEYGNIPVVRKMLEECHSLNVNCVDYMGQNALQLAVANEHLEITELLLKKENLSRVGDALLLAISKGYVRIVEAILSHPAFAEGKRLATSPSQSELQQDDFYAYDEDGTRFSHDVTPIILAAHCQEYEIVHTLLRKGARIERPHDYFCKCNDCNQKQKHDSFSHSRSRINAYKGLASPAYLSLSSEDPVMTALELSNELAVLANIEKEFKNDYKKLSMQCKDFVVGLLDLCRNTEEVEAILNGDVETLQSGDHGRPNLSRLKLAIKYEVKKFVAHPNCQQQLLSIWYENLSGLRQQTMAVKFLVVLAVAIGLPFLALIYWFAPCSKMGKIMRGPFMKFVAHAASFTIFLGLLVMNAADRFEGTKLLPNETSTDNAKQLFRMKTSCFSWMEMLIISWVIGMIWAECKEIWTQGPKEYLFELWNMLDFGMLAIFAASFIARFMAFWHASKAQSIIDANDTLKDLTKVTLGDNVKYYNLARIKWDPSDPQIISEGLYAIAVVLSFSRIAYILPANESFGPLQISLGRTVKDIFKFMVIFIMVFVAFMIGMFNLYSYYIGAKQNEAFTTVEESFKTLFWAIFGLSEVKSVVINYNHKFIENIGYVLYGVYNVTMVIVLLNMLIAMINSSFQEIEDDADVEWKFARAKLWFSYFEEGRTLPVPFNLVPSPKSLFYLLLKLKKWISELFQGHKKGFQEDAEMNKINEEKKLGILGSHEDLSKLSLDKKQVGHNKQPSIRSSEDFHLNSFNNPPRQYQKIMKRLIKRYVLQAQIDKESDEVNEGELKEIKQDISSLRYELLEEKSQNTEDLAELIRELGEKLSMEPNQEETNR", "test": "Fluorescence cell-based assay, TRPC6", "conditions": "membrane potential dye, duplicate", "method": "as §1"}, "TRPC3": {"molecular_target": "TRPC3 (Homo sapiens, UniProt Q13507)", "sequence (Q13507 whole entry)": "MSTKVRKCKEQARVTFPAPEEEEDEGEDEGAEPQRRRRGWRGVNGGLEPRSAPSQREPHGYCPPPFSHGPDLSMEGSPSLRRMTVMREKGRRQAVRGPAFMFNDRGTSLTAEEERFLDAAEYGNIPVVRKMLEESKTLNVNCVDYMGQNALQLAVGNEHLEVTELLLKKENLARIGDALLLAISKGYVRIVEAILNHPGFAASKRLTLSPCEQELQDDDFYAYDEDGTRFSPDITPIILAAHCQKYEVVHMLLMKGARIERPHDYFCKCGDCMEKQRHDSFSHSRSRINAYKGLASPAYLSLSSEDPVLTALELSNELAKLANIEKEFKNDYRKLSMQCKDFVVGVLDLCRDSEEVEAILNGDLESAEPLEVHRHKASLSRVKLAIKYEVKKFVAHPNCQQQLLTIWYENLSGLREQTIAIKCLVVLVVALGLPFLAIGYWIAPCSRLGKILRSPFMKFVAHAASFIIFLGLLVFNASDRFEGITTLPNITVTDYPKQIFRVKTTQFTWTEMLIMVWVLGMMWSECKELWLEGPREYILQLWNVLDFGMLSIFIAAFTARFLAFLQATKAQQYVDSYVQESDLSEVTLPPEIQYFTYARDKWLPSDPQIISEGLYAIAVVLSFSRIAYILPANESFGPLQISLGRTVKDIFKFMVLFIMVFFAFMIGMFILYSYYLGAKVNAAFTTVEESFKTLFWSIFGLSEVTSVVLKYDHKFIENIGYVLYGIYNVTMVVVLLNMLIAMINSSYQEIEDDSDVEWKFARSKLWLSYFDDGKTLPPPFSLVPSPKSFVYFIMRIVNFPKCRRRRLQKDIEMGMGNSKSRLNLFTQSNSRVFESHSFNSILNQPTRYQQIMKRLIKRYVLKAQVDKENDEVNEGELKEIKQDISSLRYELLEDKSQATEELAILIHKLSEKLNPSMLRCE", "test": "Fluorescence cell-based assay, TRPC3", "conditions": "membrane potential dye, duplicate", "method": "as §1"}, "TRPC5": {"molecular_target": "TRPC5 (Homo sapiens, UniProt Q9UL62)", "test": "Fluorescence cell-based assay, TRPC5", "conditions": "membrane potential dye, duplicate", "method": "as §1"}, "TRPV2 [2]": {"molecular_target": "T1, TRPV2", "test": "Fluorescence cell-based assay, TRPV2 (cannabidiol-evoked calcium influx)", "conditions": "TRPV2", "method": "The assays were performed at SB Discovery (Glasgow, UK) on a fee-for-service basis. Human TRP cells were trypsinised, counted and seeded in black, clear-bottomed 96 well plates at a density of 50,000 cells per well in 100 μL volume and incubated overnight. Next day, the cells were loaded with calcium 5 dye or membrane potential dye. TRPV1-5, TRPA1, TRPM2, TRPM3, and TRPM8 were tested using the calcium 5 dye. TRPC1, TRPC3-7, and TRPM4-5 were tested using the membrane potential dye. Both dye solutions were made up in HEPES buffered Hank's balanced salt solution (HBSS). Dye solution (90 μL) was added to the wells and incubated at 37° C. for 1 hour. Test compounds and standard inhibitors (10 μL) were then added to the wells and incubated at room temperature for 10 minutes. The plates were then placed in the flexstation and fluorescence monitored every 1.52 seconds. After 20 seconds agonist was added and the fluorescence monitored for 2 minutes at 485 nm/525 nm and 530 nm/565 nm, Ex/Em, for the calcium 5 dye and the membrane potential dye respectively. Controls-TRPV1: capsazepine; TRPV2: tranilast; TRPV3: ruthenium red; TRPV4: ruthenium red; TRPV5: Gd^3+; TRPA1, ruthenium red; TRPC1: Gd^3+; TRPC3: Pyr3; TRPC4: ML 204; TRPC5: ML 204; TRPC6: ML 204; TRPC7: SKF 96365; TRPM2: 2-APB; TRPM3: Mef acid; TRPM4: clotrimazole; TRPM5: TPPO; TRPM8: 2-APB. Control data was in all cases within historical range."}, "LNCaP cell line": {"test_system": "LNCaP cell line", "test": "Cell viability, LNCaP", "type": "cell-based", "conditions": "5 and 10 μM, 24 hours", "method": "5,000 cells/well were seeded in 96 well plates with DMEM containing 2% FBS. The next day piperlongumine was added at various concentrations. […] At 24, 48 and 72 hours the media was removed and replaced with CellTiter-Blue (Promega, 1:20 in media). The plate was incubated for 90 minutes before measuring fluorescence intensity."}, "TRPM3": {"molecular_target": "TRPM3 (Homo sapiens, UniProt Q9HCF6)", "sequence (Q9HCF6 whole entry)": "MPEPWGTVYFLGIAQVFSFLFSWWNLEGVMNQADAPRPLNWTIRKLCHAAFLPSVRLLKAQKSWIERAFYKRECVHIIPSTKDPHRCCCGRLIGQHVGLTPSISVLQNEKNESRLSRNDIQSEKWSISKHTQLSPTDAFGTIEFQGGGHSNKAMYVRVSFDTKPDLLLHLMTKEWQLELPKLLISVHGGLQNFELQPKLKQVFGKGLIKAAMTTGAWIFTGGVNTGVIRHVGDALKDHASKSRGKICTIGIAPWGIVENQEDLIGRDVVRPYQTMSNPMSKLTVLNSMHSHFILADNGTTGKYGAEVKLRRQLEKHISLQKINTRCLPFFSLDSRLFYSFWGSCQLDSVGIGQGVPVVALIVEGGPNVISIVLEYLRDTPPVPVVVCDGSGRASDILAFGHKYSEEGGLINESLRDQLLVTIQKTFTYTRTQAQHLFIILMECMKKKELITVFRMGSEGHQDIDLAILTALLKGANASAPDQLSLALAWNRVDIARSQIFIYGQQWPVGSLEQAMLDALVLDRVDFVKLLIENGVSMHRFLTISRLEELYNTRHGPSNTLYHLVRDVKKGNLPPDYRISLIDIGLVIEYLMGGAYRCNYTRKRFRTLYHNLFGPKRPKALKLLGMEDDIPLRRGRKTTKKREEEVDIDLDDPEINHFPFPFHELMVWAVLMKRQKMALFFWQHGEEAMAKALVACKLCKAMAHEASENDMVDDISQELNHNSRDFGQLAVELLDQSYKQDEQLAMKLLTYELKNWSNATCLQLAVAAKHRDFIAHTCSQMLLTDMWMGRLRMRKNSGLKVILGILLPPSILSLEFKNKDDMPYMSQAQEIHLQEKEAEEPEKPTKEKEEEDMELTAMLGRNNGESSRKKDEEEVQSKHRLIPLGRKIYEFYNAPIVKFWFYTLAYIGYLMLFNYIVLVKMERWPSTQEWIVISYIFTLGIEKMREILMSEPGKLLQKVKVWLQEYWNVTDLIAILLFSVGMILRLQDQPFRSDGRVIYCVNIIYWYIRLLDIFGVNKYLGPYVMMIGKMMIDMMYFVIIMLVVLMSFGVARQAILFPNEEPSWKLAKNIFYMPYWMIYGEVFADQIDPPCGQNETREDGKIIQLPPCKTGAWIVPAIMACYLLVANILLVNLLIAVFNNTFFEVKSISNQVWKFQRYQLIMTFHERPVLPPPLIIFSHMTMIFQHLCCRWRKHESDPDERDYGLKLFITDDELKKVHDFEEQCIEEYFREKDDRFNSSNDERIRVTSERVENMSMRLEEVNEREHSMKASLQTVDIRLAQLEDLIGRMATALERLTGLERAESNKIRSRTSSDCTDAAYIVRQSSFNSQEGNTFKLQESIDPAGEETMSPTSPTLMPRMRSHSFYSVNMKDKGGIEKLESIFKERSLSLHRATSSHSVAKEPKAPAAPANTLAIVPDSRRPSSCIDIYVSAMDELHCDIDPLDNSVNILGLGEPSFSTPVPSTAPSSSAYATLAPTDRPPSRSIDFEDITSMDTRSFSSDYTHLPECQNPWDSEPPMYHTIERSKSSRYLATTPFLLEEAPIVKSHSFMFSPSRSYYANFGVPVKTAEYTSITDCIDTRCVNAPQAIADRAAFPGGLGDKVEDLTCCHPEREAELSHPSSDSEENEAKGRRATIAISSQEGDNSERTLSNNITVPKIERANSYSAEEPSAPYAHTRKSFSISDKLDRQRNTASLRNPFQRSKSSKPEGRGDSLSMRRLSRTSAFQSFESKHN", "test": "Fluorescence cell-based assay, TRPM3", "conditions": "calcium 5 dye, duplicate", "method": "as §1"}, "[3]": {"test": "Dynamic light scattering, colloidal aggregation", "type": "physicochemical", "conditions": "water, 25° C.", "method": "Dynamic light scattering (Zetasizer Nano S, Malvern, UK) was used to determine compound colloidal aggregation. The particle sizes were measured at 25° C. Water solubility was measured as described elsewhere with successive measurements within 60 minutes.^35 A 100 mM stock solution of piperlongumine was prepared in DMSO, following dilution to deionized water to obtain an analyte solution of 100 μM (0.1% DMSO). Colloidal aggregation was measured through sequential dilutions."}}, "note": "Entries after “also recorded” stand apart in the source; their conditions may differ."}
{"smiles": "COc1cc(/C=C/C(=O)N2CCC=CC2=O)cc(OC)c1OC", "note": "[Compound 1, piperlongumine]", "values": [{"measurement": "IC50", "setting": "TRPM8", "value": "> 100", "unit": "µM"}, {"measurement": "Cell death during wound-healing assay", "setting": "HepG2 cells; 5 μM", "value": "did not induce significant cell death"}, {"measurement": "Cell migration, wound healing", "setting": "HepG2 cells; 1 at 5 μM", "value": "significantly reduced migration; also recorded: inhibits cancer cell migration in a Ca^2+-dependent manner"}, {"measurement": "IC50", "setting": "TRPA1", "value": "39 ± 0.15", "unit": "µM"}, {"measurement": "IC50", "setting": "TRPV3", "value": "> 100", "unit": "µM"}, {"measurement": "IC50", "setting": "TRPV4", "value": "> 100", "unit": "µM"}, {"measurement": "Binding by isothermal titration calorimetry", "setting": "rabbit TRPV2 orthologue", "value": "did not bind"}, {"measurement": "Mode of antagonism", "setting": "TRPV2 [1]; EC50 curves of cannabidiol with increasing concentrations of 1", "value": "non-competitive (allosteric) antagonism"}, {"measurement": "Concentration of 1 above which apparent vmax of cannabidiol is reduced", "setting": "TRPV2 [1]; Michaelis-Menten analysis", "value": "higher than 5 pM"}, {"measurement": "IC50", "setting": "TRPC6", "value": "> 100", "unit": "µM"}, {"measurement": "IC50", "setting": "TRPC3", "value": "> 100", "unit": "µM"}, {"measurement": "IC50", "setting": "TRPC5", "value": "> 100", "unit": "µM"}, {"measurement": "Ligand Efficiency", "setting": "TRPV2 [2]", "value": 0.32}, {"measurement": "IC50", "setting": "TRPV2 [2]; calcium 5 dye, spread in log units, duplicate, read-out: IC50/μM ± SD", "value": 4.6, "unit": "µM"}, {"measurement": "Cell viability", "setting": "LNCaP cell line", "value": "cell viability was compromised"}, {"measurement": "IC50", "setting": "TRPM3", "value": "> 100", "unit": "µM"}, {"measurement": "Colloidal aggregation (dynamic light scattering)", "setting": "[3]", "value": "absence of colloidal aggregate-induced inhibition"}]}
